The values below come from patent US10538498B2, “1,3,4-oxadiazole sulfonamide derivative compounds as histone deacetylase 6 inhibitor, and the pharmaceutical composition comprising the same” (Chong Kun Dang Pharmaceutical Corp., priority 2015, dated 2020).

The assay deals with T1, human recombinant HDAC6 (Homo sapiens, UniProt Q9UBN7).
T1 construct: purchased Calbiochem 382180
T1 sequence (Q9UBN7 1-1215): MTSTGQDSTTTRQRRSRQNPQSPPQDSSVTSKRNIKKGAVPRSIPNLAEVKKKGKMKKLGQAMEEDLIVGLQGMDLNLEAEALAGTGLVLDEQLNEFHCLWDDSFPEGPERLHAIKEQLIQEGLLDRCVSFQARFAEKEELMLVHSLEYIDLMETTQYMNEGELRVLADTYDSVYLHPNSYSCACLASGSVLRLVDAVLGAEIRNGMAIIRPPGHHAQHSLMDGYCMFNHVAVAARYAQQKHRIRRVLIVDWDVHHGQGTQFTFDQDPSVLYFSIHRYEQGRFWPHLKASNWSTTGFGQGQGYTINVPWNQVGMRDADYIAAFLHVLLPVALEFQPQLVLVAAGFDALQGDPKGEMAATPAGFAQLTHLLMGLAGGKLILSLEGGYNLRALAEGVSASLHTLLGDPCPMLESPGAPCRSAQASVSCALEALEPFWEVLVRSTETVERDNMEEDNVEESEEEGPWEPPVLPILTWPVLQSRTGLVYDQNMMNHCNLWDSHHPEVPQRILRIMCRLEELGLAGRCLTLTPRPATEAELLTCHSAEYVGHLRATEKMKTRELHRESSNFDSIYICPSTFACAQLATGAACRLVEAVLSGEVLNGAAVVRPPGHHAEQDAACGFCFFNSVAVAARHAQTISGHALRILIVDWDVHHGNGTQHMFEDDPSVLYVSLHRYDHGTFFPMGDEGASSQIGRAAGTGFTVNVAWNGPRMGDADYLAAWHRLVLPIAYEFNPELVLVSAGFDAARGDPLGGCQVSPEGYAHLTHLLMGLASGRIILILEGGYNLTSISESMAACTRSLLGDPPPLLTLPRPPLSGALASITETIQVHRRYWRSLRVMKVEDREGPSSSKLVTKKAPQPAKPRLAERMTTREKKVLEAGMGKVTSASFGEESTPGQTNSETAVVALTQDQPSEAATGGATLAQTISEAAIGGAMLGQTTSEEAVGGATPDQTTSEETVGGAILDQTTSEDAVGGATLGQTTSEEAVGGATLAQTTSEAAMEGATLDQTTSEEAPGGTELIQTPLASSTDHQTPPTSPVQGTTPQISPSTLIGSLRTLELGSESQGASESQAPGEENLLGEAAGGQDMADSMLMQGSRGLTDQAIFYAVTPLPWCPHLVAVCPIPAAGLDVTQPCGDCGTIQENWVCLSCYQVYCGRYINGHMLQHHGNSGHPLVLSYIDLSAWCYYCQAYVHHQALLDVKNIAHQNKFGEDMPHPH
The experiment in a line: HDAC6 enzyme activity inhibition assay (HDAC Fluorimetric Drug Discovery Kit). The format is biochemical. The following applies: for HDAC6 selectivity (fold): HDAC1 vs HDAC6; for IC50: same protocol as the HDAC1 enzyme activity test. In short, it runs like this:
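First, compound in 5-fold dilution steps is combined with 0.3 μg enzyme and 10 μM Fluor de Lys-SIRT1 substrate. After 60 min at 30° C, developer is added for 30 min. Fluorescence at Ex 360/Em 460 then gives IC50 values.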

The IC50 is the concentration at which inhibition is half-maximal. For `O=S1(=O)CCC(S(=O)(=O)N(Cc2ccc(-c3nnc(C(F)F)o3)cn2)c2ccccc2)CC1` [Compound 11350, N-((5-(5-(difluoromethyl)-1,3,4-oxadiazol-2-yl)pyridin-2-yl)methyl)-N-phenyltetrahydro-2H-thiopyran-4-sulfonamide 1,1-dioxide], the “HDAC6 selectivity (fold)” value was 10000 fold and the IC50 worked out at 10 nM.
The like results for `CS(=O)(=O)N(Cc1ccc(-c2nnc(C(F)F)o2)cn1)C1CCCCC1` [Compound 11351, N-cyclohexyl-N-((5-(5-(difluoromethyl)-1,3,4-oxadiazol-2-yl)pyridin-2-yl)methyl)methanesulfonamide] were, in that order, 1449 fold and 69 nM.
Turning to `CS(=O)(=O)N(Cc1ccc(-c2nnc(C(F)F)o2)cn1)c1cccc(Cl)c1` [Compound 11352, N-(3-chlorophenyl)-N-((5-(5-(difluoromethyl)-1,3,4-oxadiazol-2-yl)pyridin-2-yl)methyl)methanesulfonamide], the “HDAC6 selectivity (fold)” value is listed as 12500 fold and the IC50 was found to be 8 nM.
On the same counts, the results for `CS(=O)(=O)N(Cc1ccc(-c2nnc(C(F)F)o2)cn1)c1cccnc1` [Compound 11353, N-((5-(5-(difluoromethyl)-1,3,4-oxadiazol-2-yl)pyridin-2-yl)methyl)-N-(pyridin-3-yl)methanesulfonamide] are 3846 fold and 26 nM.
On the same counts, the results for `CS(=O)(=O)N(Cc1ccc(-c2nnc(C(F)F)o2)cn1)c1cccc(Br)c1` [Compound 11354, N-(3-bromophenyl)-N-((5-(5-(difluoromethyl)-1,3,4-oxadiazol-2-yl)pyridin-2-yl)methyl)methanesulfonamide] are 12500 fold and 8 nM.
The like results for `Cc1cccc(N(Cc2ccc(-c3nnc(C(F)F)o3)cn2)S(C)(=O)=O)c1` [Compound 11355, N-((5-(5-(difluoromethyl)-1,3,4-oxadiazol-2-yl)pyridin-2-yl)methyl)-N-(m-tolyl)methanesulfonamide] were, in that order, 6250 fold and 16 nM.
On to `CCS(=O)(=O)N(Cc1ccc(-c2nnc(C(F)F)o2)cn1)c1cccc(Br)c1` [Compound 11366, N-(3-bromophenyl)-N-((5-(5-(difluoromethyl)-1,3,4-oxadiazol-2-yl)pyridin-2-yl)methyl)ethanesulfonamide], for which the “HDAC6 selectivity (fold)” value was 9091 fold and the 50% inhibitory concentration (IC50) was 11 nM.
Take `CN1CCC(S(=O)(=O)N(Cc2ccc(-c3nnc(C(F)F)o3)cn2)c2ccccc2)CC1` [Compound 11367, N-((5-(5-(difluoromethyl)-1,3,4-oxadiazol-2-yl)pyridin-2-yl)methyl)-1-methyl-N-phenylpiperidine-4-sulfonamide]: the “HDAC6 selectivity (fold)” value is 6250 fold and the concentration for half-maximal inhibition (IC50) is 16 nM.
Consider `CCN1CCC(S(=O)(=O)N(Cc2ccc(-c3nnc(C(F)F)o3)cn2)c2ccccc2)CC1` [Compound 11368, N-((5-(5-(difluoromethyl)-1,3,4-oxadiazol-2-yl)pyridin-2-yl)methyl)-1-ethyl-N-phenylpiperidine-4-sulfonamide], for which the “HDAC6 selectivity (fold)” value was found to be 6667 fold and the half-maximal inhibitory concentration (IC50) came out at 15 nM.
Turning to `CN1CCC(S(=O)(=O)N(Cc2ccc(-c3nnc(C(F)F)o3)cc2F)c2ccccc2)CC1` [Compound 11372, N-(4-(5-(difluoromethyl)-1,3,4-oxadiazol-2-yl)-2-fluorobenzyl)-1-methyl-N-phenylpiperidine-4-sulfonamide], the “HDAC6 selectivity (fold)” value is 11111 fold and the half-maximal inhibitory concentration (IC50) turned out to be 9 nM.
On the same counts, the results for `CCN1CCC(S(=O)(=O)N(Cc2ccc(-c3nnc(C(F)F)o3)cc2F)c2ccccc2)CC1` [Compound 11373, N-(4-(5-(difluoromethyl)-1,3,4-oxadiazol-2-yl)-2-fluorobenzyl)-1-ethyl-N-phenylpiperidine-4-sulfonamide] are 10000 fold and 10 nM.
With `CC(C)(O)CN1CCC(S(=O)(=O)N(Cc2ccc(-c3nnc(C(F)F)o3)cc2F)c2ccccc2)CC1` [Compound 11377, N-(4-(5-(difluoromethyl)-1,3,4-oxadiazol-2-yl)-2-fluorobenzyl)-1-(2-hydroxy-2-methylpropyl)-N-phenylpiperidine-4-sulfonamide], the “HDAC6 selectivity (fold)” value was 4545 fold and the concentration for half-maximal inhibition (IC50) is 22 nM.
On the same counts, the results for `CCS(=O)(=O)N(Cc1ccc(-c2nnc(C(F)F)o2)cn1)c1ccc(CN2CCN(C(C)=O)CC2)cc1` [Compound 11386, N-(4-((4-acetylpiperazin-1-yl)methyl)phenyl)-N-((5-(5-(difluoromethyl)-1,3,4-oxadiazol-2-yl)pyridin-2-yl)methyl)ethanesulfonamide] are 1316 fold and 76 nM.
Regarding `CCS(=O)(=O)N(Cc1ccc(-c2nnc(C(F)F)o2)cn1)c1ccc(CN2CCN(S(C)(=O)=O)CC2)cc1` [Compound 11387, N-((5-(5-(difluoromethyl)-1,3,4-oxadiazol-2-yl)pyridin-2-yl)methyl)-N-(4-((4-(methylsulfonyl)piperazin-1-yl)methyl)phenyl)ethanesulfonamide], the “HDAC6 selectivity (fold)” value is given as 1087 fold and the IC50 came to 92 nM.
On the same counts, the results for `CCS(=O)(=O)N(Cc1ccc(-c2nnc(C(F)F)o2)cn1)c1cccc(CN2CCN(C(C)=O)CC2)c1` [Compound 11388, N-(3-((4-acetylpiperazin-1-yl)methyl)phenyl)-N-((5-(5-(difluoromethyl)-1,3,4-oxadiazol-2-yl)pyridin-2-yl)methyl)ethanesulfonamide] are 1333 fold and 75 nM.
On the same counts, the results for `CS(=O)(=O)N(Cc1ccc(-c2noc(C(F)(F)F)n2)cc1)Cc1ccc(-c2nnc(C(F)F)o2)cc1F` [Compound 11389, N-(4-(5-(difluoromethyl)-1,3,4-oxadiazol-2-yl)-2-fluorobenzyl)-N-(4-(5-(trifluoromethyl)-1,2,4-oxadiazol-3-yl)benzyl)methanesulfonamide] are 104 fold and 960 nM.
Regarding `O=S(=O)(C1CCOCC1)N(Cc1ccc(-c2nnc(C(F)F)o2)cn1)c1ccccc1` [Compound 11390, N-((5-(5-(difluoromethyl)-1,3,4-oxadiazol-2-yl)pyridin-2-yl)methyl)-N-phenyltetrahydro-2H-pyran-4-sulfonamide], the “HDAC6 selectivity (fold)” value turned out to be 7692 fold and the 50% inhibitory concentration (IC50) came out at 13 nM.
On to `CCS(=O)(=O)N(Cc1ccc(-c2nnc(C(F)F)o2)cc1F)c1cccc(CN2CCS(=O)(=O)CC2)c1` [Compound 11392, N-(4-(5-(difluoromethyl)-1,3,4-oxadiazol-2-yl)-2-fluorobenzyl)-N-(3-((1,1-dioxidothiomorpholino)methyl)phenyl)ethanesulfonamide], for which the “HDAC6 selectivity (fold)” value came out at 1000 fold and the half-maximal inhibitory concentration (IC50) was determined as 100 nM.
Take `CCS(=O)(=O)N(Cc1ccc(-c2nnc(C(F)F)o2)cc1F)c1ccc(CN2CCN(C(C)=O)CC2)cc1` [Compound 11402, N-(4-((4-acetylpiperazin-1-yl)methyl)phenyl)-N-(4-(5-(difluoromethyl)-1,3,4-oxadiazol-2-yl)-2-fluorobenzyl)ethanesulfonamide]: the “HDAC6 selectivity (fold)” value is recorded as 1316 fold and the IC50 is 76 nM.
The like results for `CCS(=O)(=O)N(Cc1ccc(-c2nnc(C(F)F)o2)cc1F)c1cccc(CN2CCN(C(C)=O)CC2)c1` [Compound 11403, N-(3-((4-acetylpiperazin-1-yl)methyl)phenyl)-N-(4-(5-(difluoromethyl)-1,3,4-oxadiazol-2-yl)-2-fluorobenzyl)ethanesulfonamide] were, in that order, 1282 fold and 78 nM.
On the same counts, the results for `CCS(=O)(=O)N(Cc1ccc(-c2nnc(C(F)F)o2)cc1F)c1cccc(CN2CCN(S(C)(=O)=O)CC2)c1` [Compound 11404, N-(4-(5-(difluoromethyl)-1,3,4-oxadiazol-2-yl)-2-fluorobenzyl)-N-(3-((4-(methylsulfonyl)piperazin-1-yl)methyl)phenyl)ethanesulfonamide] are 952 fold and 105 nM.
